Assay results from US12570675B2, “Boronic acid compounds” (LG CHEM, LTD., priority 2020, dated 2026).

target: Proteasome chymotrypsin-like activity (S26 protein from RPMI8226 cells) (Homo sapiens, UniProt P28074); assay type: biochemical; conditions: S26 protein from RPMI8226 cell extract 2 ug/well, substrate 20 uM, 37° C., 90 minutes; read-out: Proteasome chymotrypsin-like activity inhibition IC50
Summary of the method: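 Inhibition is measured in crude proteasome (S26) from RPMI8226 cells at 2 ug/well, using 20 uM substrate specific to each activity: Suc-LLVY-AMC for chymotrypsin-like, Z-LLE-AMC for caspase-like. Compounds span a dilution series from 10 uM.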

Sequence of Proteasome chymotrypsin-like activity (S26 protein from RPMI8226 cells) (P28074 60-263 limits assumed): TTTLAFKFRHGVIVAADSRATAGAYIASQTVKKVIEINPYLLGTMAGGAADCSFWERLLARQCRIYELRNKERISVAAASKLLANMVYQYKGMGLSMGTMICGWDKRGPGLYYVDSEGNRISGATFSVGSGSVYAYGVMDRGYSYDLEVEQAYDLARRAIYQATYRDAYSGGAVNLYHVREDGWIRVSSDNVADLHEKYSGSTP

Row | Compound | IC50 [nM]
1 | Cc1nocc1C(=O)NCC1=NOC(Cc2ccccc2)(C(=O)N[C@@H](CC(C)C)B(O)O)C1 (stereo partly drawn) [Example 120, ((1R)-1-(5-benzyl-3-((3-methylisoxazol-4-carboxamido)methyl)-4,5-dihydroisoxazol-5-carboxamido)-3-methylbutyl)boronic acid] | < 10
2 | CC(C)C[C@H](NC(=O)C1(Cc2ccccc2)CC(CNC(=O)c2cc3ccccc3cn2)=NO1)B(O)O (stereo partly drawn) [Example 121, ((1R)-1-(5-benzyl-3-((isoquinolin-3-carboxamido)methyl)-4,5-dihydroisoxazol-5-carboxamido)-3-methylbutyl)boronic acid] | < 10
3 | CC(C)C[C@H](NC(=O)C1(Cc2ccccc2)CC(CNC(=O)c2cnc3ccccc3n2)=NO1)B(O)O (stereo partly drawn) [Example 122, ((1R)-1-(5-benzyl-3-((quinoxalin-2-carboxamido)methyl)-4,5-dihydroisoxazol-5-carboxamido)-3-methylbutyl)boronic acid] | < 10
4 | CC(C)C[C@H](NC(=O)C1(Cc2ccccc2)CC(CNC(=O)c2ccc(OC(C)C)c(C#N)c2)=NO1)B(O)O (stereo partly drawn) [Example 123, [(1R)-1-[[5-benzyl-3-[[(3-cyano-4-isopropoxy-benzoyl)amino]methyl]-4H-1,2-oxazol-5-carbonyl]amino]-3-methyl-butyl]boronic acid] | < 10
5 | CC(C)C[C@H](NC(=O)C1(Cn2cccn2)CC(CNC(=O)c2nccc3ccccc23)=NO1)B(O)O (stereo partly drawn) [Example 128, ((1R)-1-(5-((1H-pyrazol-1-yl)methyl)-3-((isoquinolin-1-carboxamido)methyl)-4,5-dihydroisoxazol-5-carboxamido)-3-methylbutyl)boronic acid] | < 10
6 | CC(C)C[C@H](NC(=O)C1(C(O)c2ccccc2)CC(CNC(=O)c2nccc3ccccc23)=NO1)B(O)O (stereo partly drawn) [Example 131, ((1R)-1-(5-(hydroxy(phenyl)methyl)-3-((isoquinolin-1-carboxamido)methyl)-4,5-dihydroisoxazol-5-carboxamido)-3-methylbutyl)boronic acid] | < 10
7 | COc1cccc(CC2(C(=O)N[C@@H](CC(C)C)B(O)O)CC(CNC(=O)c3cccn4ccnc34)=NO2)c1 (stereo partly drawn) [Example 135, ((1R)-1-(3-((imidazo[1,2-a]pyridin-8-carboxamido)methyl)-5-(3-methoxybenzyl)-4,5-dihydroisoxazol-5-carboxamido)-3-methylbutyl)boronic acid] | < 10
8 | CC(C)C[C@H](NC(=O)C1(C(C)c2ccccc2)CC(CNC(=O)c2nccc3ccccc23)=NO1)B(O)O (stereo partly drawn) [Example 136, ((1R)-1-(3-((isoquinolin-1-carboxamido)methyl)-5-(1-phenylethyl)-4,5-dihydroisoxazol-5-carboxamido)-3-methylbutyl)boronic acid] | < 10
9 | CC(C)C[C@H](NC(=O)C1(Cc2cscn2)CC(CNC(=O)c2nccc3ccccc23)=NO1)B(O)O (stereo partly drawn) [Example 137, ((1R)-1-(3-((isoquinolin-1-carboxamido)methyl)-5-(thiazol-4-ylmethyl)-4,5-dihydroisoxazol-5-carboxamido)-3-methylbutyl)boronic acid] | < 10
10 | Cc1cn2cccc(C(=O)NCC3=NOC(Cc4ccccc4)(C(=O)N[C@@H](CC(C)C)B(O)O)C3)c2n1 (stereo partly drawn) [Example 139, ((1R)-1-(5-benzyl-3-((2-methylimidazo[1,2-a]pyridin-8-carboxamido)methyl)-4,5-dihydroisoxazol-5-carboxamido)-3-methylbutyl)boronic acid] | < 10
11 | Cc1nc2c(C(=O)NCC3=NOC(Cc4ccccc4)(C(=O)N[C@@H](CC(C)C)B(O)O)C3)cccn2c1Cl (stereo partly drawn) [Example 140, ((1R)-1-(5-benzyl-3-((3-chloro-2-methylimidazo[1,2-a]pyridin-8-carboxamido)methyl)-4,5-dihydroisoxazol-5-carboxamido)-3-methylbutyl)boronic acid] | < 10
12 | CC(C)C[C@H](NC(=O)C1(Cc2ccccc2)CC(CNC(=O)c2cccn3c(Cl)cnc23)=NO1)B(O)O (stereo partly drawn) [Example 142, ((1R)-1-(5-benzyl-3-((3-chloroimidazo[1,2-a]pyridin-8-carboxamido)methyl)-4,5-dihydroisoxazol-5-carboxamido)-3-methylbutyl)boronic acid] | < 10
13 | CC(C)C[C@H](NC(=O)C1(Cc2ccccc2)CC(CNS(=O)(=O)c2cccc3cccnc23)=NO1)B(O)O (stereo partly drawn) [Example 144, ((1R)-1-(5-benzyl-3-((quinolin-8-sulfonamido)methyl)-4,5-dihydroisoxazol-5-carboxamido)-3-methylbutyl)boronic acid] | < 10
14 | CC(C)C[C@H](NC(=O)C1(Cc2ccccc2)CC(CNCc2cc(Cl)ccc2Cl)=NO1)B(O)O (stereo partly drawn) [Example 146, ((1R)-1-(5-benzyl-3-(((2,5-dichlorobenzyl)amino)methyl)-4,5-dihydroisoxazol-5-carboxamido)-3-methylbutyl)boronic acid] | < 25
15 | CC(C)C[C@H](NC(=O)C1(Cc2ccccc2)CC(CNCc2nccc3ccccc23)=NO1)B(O)O (stereo partly drawn) [Example 147, ((1R)-1-(5-benzyl-3-(((isoquinolin-1-ylmethyl)amino)methyl)-4,5-dihydroisoxazol-5-carboxamido)-3-methylbutyl)boronic acid] | < 25
16 | CC(C)C[C@H](NC(=O)C1(Cn2cccn2)CC(CNC(=O)c2cccn3ccnc23)=NO1)B(O)O (stereo partly drawn) [Example 149, ((1R)-1-(5-((1H-pyrazol-1-yl)methyl)-3-((imidazo[1,2-a]pyridin-8-carboxamido)methyl)-4,5-dihydroisoxazol-5-carboxamido)-3-methylbutyl)boronic acid] | < 10
17 | CC(C)C[C@H](NC(=O)C1(Cc2cscn2)CC(CNC(=O)c2cccn3ccnc23)=NO1)B(O)O (stereo partly drawn) [Example 150, ((1R)-1-(3-((imidazo[1,2-a]pyridin-8-carboxamido)methyl)-5-(thiazol-4-ylmethyl)-4,5-dihydroisoxazol-5-carboxamido)-3-methylbutyl)boronic acid] | < 10
18 | CC(C)C[C@H](NC(=O)C1(C(F)(F)c2ccccc2)CC(CNC(=O)c2nccc3ccccc23)=NO1)B(O)O (stereo partly drawn) [Example 155, ((1R)-1-(5-(difluoro(phenyl)methyl)-3-((isoquinolin-1-carboxamido)methyl)-4,5-dihydroisoxazol-5-carboxamido)-3-methylbutyl)boronic acid] | < 25
19 | CC(C)C[C@H](NC(=O)C1(C(F)(F)c2ccccc2)CC(CNC(=O)c2cccn3ccnc23)=NO1)B(O)O (stereo partly drawn) [Example 156, ((1R)-1-(5-(difluoro(phenyl)methyl)-3-((imidazo[1,2-a]pyridin-8-carboxamido)methyl)-4,5-dihydroisoxazol-5-carboxamido)-3-methylbutyl)boronic acid] | < 25
20 | CC(C)C[C@H](NC(=O)C1(Cc2ccccc2)CC(C(C)(C)NC(=O)c2nccc3ccccc23)=NO1)B(O)O (stereo partly drawn) [Example 157, [(1R)-1-[[5-benzyl-3-[1-(isoquinolin-1-carbonylamino)-1-methyl-ethyl]-4H-1,2-oxazol-5-carbonyl]amino]-3-methyl-butyl]boronic acid] | < 10
21 | CC(C)C[C@H](NC(=O)C1(Cc2ccccc2)CC(C(C)(C)NC(=O)c2cccn3ccnc23)=NO1)B(O)O (stereo partly drawn) [Example 158, ((1R)-1-(5-benzyl-3-(2-(imidazo[1,2-a]pyridin-8-carboxamido)propan-2-yl)-4,5-dihydroisoxazol-5-carboxamido)-3-methylbutyl)boronic acid] | < 100
22 | Cc1cccnc1C(=O)NCC1=NOC(Cc2ccccc2)(C(=O)N[C@@H](CC(C)C)B(O)O)C1 (stereo partly drawn) [Example 159, ((1R)-1-(5-benzyl-3-((3-methylpicolinamido)methyl)-4,5-dihydroisoxazol-5-carboxamido)-3-methylbutyl)boronic acid] | < 10
23 | CC(C)C[C@H](NC(=O)C1(Cc2ccccc2)CC(CNC(=O)c2nccnc2N)=NO1)B(O)O (stereo partly drawn) [Example 161, ((1R)-1-(3-((3-aminopyrazin-2-carboxamido)methyl)-5-benzyl-4,5-dihydroisoxazol-5-carboxamido)-3-methylbutyl)boronic acid] | < 10
24 | CC(C)C[C@H](NC(=O)C1(Cc2ccccc2)CC(CNC(=O)c2cc(F)c(F)cc2Cl)=NO1)B(O)O (stereo partly drawn) [Example 163, ((1R)-1-(5-benzyl-3-((2-chloro-4,5-difluorobenzamido)methyl)-4,5-dihydroisoxazol-5-carboxamido)-3-methylbutyl)boronic acid] | < 10
25 | CC(C)C[C@H](NC(=O)C1(Cc2ccccc2)CC(CNC(=O)c2cc(F)cnc2Cl)=NO1)B(O)O (stereo partly drawn) [Example 164, ((1R)-1-(5-benzyl-3-((2-chloro-5-fluoronicotinamido)methyl)-4,5-dihydroisoxazol-5-carboxamido)-3-methylbutyl)boronic acid] | < 10
26 | CC(C)C[C@H](NC(=O)C1(Cc2ccccc2)CC(CNC(=O)c2cnnc3ccccc23)=NO1)B(O)O (stereo partly drawn) [Example 165, ((1R)-1-(5-benzyl-3-((cinnolin-4-carboxamido)methyl)-4,5-dihydroisoxazol-5-carboxamido)-3-methylbutyl)boronic acid] | < 10
27 | CC(C)C[C@H](NC(=O)C1(Cc2ccccc2)CC(CNC(=O)c2ccnnc2)=NO1)B(O)O (stereo partly drawn) [Example 166, ((1R)-1-(5-benzyl-3-((pyridazin-4-carboxamido)methyl)-4,5-dihydroisoxazol-5-carboxamido)-3-methylbutyl)boronic acid] | < 25
28 | CC(C)C[C@H](NC(=O)C1(Cc2ccccc2C(F)(F)F)CC(CNC(=O)c2nccc3ccccc23)=NO1)B(O)O (stereo partly drawn) [Example 167, ((1R)-1-(3-((isoquinolin-1-carboxamido)methyl)-5-(2-(trifluoromethyl)benzyl)-4,5-dihydroisoxazol-5-carboxamido)-3-methylbutyl)boronic acid] | < 10
29 | CC(C)C[C@H](NC(=O)C1(Cc2ccccc2)CC(CNC(=O)c2cocn2)=NO1)B(O)O (stereo partly drawn) [Example 168, ((1R)-1-(5-benzyl-3-((oxazol-4-carboxamido)methyl)-4,5-dihydroisoxazol-5-carboxamido)-3-methylbutyl)boronic acid] | < 25
